Source: ChEMBL document CHEMBL1201862, “PubChem BioAssay data set” (2004)
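Compound exposure: 48 hours, 5 concentrations, 96-well plates. Here, GI50 denotes the concentration required for 50% inhibition of growth.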 Activity calls are given as the source filed them. Rule as the data show it: active = GI50 up to about 1.1 µM and inactive = higher.

Key:
Experiment in all cases: NCI-60 cell line screen, 48 h
M14 = system: M14
M19-MEL = system: M19-MEL
SR = system: SR
SNB-78 = system: SNB-78
TK-10 = system: TK-10
DMS-273 = system: DMS-273
KM-20L2 = system: KM-20L2
DLD-1 = system: DLD-1
XF498 = system: XF498
LOX IMVI = system: LOX IMVI
HCC 2998 = system: HCC 2998
ACHN = system: ACHN
SNB-75 = system: SNB-75
DMS-114 = system: DMS-114
HOP-18 = system: HOP-18
A498 = system: A498
MCF7 = system: MCF7
NCI/ADR-RES = system: NCI/ADR-RES
T47D = system: T47D
MDA-N = system: MDA-N

Measured: GI50

Cc1cc(C)nc(NS(=O)(=O)c2ccc(NC(=O)c3cccn4c(=O)c5ccccc5nc34)cc2)n1
inactive: M14 50.7 µM | M19-MEL 31.6 µM | SR 24 µM | SNB-78 39.4 µM | TK-10 > 100 µM | DMS-273 34.4 µM | KM-20L2 > 100 µM | DLD-1 31.9 µM | XF498 54.2 µM | LOX IMVI 29.1 µM | HCC 2998 > 100 µM | ACHN > 100 µM | SNB-75 32.7 µM

COc1cc(/C=C/c2ccc(OC)c(OC)c2)oc(=O)c1
inactive: DMS-114 > 182 µM | HOP-18 4.88 µM | M19-MEL > 250 µM | A498 > 169 µM | MCF7 > 250 µM | SNB-78 150 µM | DMS-273 > 110 µM | KM-20L2 > 167 µM | DLD-1 > 250 µM | XF498 > 250 µM | LOX IMVI > 250 µM | NCI/ADR-RES > 250 µM | HCC 2998 > 250 µM | SNB-75 73.3 µM

CCCCN1CN2C(=O)C(C(=O)OCC)C(=O)c3sc4nc(SC)nc1c4c32 (stereo not given)
inactive: M14 22.4 µM | T47D 19.7 µM | SR 33.1 µM | A498 1.53 µM | MCF7 21 µM | MDA-N 17.1 µM | TK-10 14.9 µM | LOX IMVI 20.5 µM | NCI/ADR-RES 19 µM | ACHN 17 µM | SNB-75 17.5 µM

O=NN(CCCl)C(=O)N[C@H]1CC[C@@H](O)CC1
inactive: DMS-114 20.7 µM | HOP-18 35.2 µM | M19-MEL 27.9 µM | A498 > 100 µM | MCF7 31.6 µM | SNB-78 24.7 µM | DMS-273 34.8 µM | KM-20L2 > 100 µM | DLD-1 24.6 µM | XF498 21.5 µM | LOX IMVI 26.1 µM | NCI/ADR-RES 23.3 µM | HCC 2998 81.5 µM | SNB-75 22.6 µM

CCOC(=O)C1=C(C)N2CCCOC2(C)C(C(=O)OC)C1c1cccc([N+](=O)[O-])c1 (stereo not given)
inactive: M14 > 100 µM | DMS-114 44.8 µM | M19-MEL > 100 µM | SR 35.2 µM | TK-10 > 100 µM | KM-20L2 > 100 µM | HCC 2998 > 100 µM | ACHN 71.6 µM | SNB-75 13.6 µM

CCOC(=O)c1ccc(C)c(/N=N/N(C)C)c1
inactive: M14 > 100 µM | DMS-114 > 100 µM | HOP-18 4.32 µM | M19-MEL > 100 µM | SR 93.1 µM | A498 > 100 µM | TK-10 > 100 µM | DMS-273 > 100 µM | KM-20L2 > 100 µM | DLD-1 > 100 µM | XF498 > 100 µM | LOX IMVI > 100 µM | HCC 2998 > 100 µM | ACHN > 100 µM | SNB-75 > 100 µM

COc1cccc(N2C(Cl)C(=O)C2c2c[nH]c3ccccc23)c1 (stereo not given)
inactive: M14 > 100 µM | DMS-114 > 100 µM | M19-MEL > 100 µM | SR > 100 µM | TK-10 > 100 µM | KM-20L2 > 100 µM | XF498 > 100 µM | SNB-75 > 10 µM

CC(C)NC(=O)OCc1c(CO)c2c(n1C)-c1ccccc1CC2
inactive: DMS-114 18.7 µM | HOP-18 15 µM | M19-MEL 23.9 µM | A498 55.5 µM | MCF7 37.6 µM | SNB-78 33.8 µM | DMS-273 26.8 µM | KM-20L2 30.8 µM | DLD-1 20.7 µM | XF498 14.2 µM | LOX IMVI 25.4 µM | NCI/ADR-RES 24.5 µM | HCC 2998 19.9 µM | SNB-75 33 µM

COc1ccc(CN/C=N/C(C#N)=C(\N)C#N)cc1OC
inactive: M14 > 100 µM | T47D 83.6 µM | SR > 100 µM | A498 54.8 µM | MCF7 > 100 µM | MDA-N > 100 µM | TK-10 > 100 µM | LOX IMVI > 100 µM | NCI/ADR-RES > 100 µM | HCC 2998 > 100 µM | ACHN > 100 µM | SNB-75 76.7 µM

Cc1ccc(S(=O)(=O)NC(=N)N(C)N=O)cc1
inactive: M14 > 100 µM | T47D > 100 µM | SR > 100 µM | A498 71.4 µM | MCF7 > 100 µM | MDA-N > 100 µM | TK-10 > 100 µM | LOX IMVI > 100 µM | NCI/ADR-RES > 100 µM | SNB-75 38.2 µM

Cc1ccc(C2COc3cc(O)c(O)cc3C2)cc1 (stereo not given)
inactive: DMS-114 12.7 µM | HOP-18 43.5 µM | M19-MEL 19 µM | A498 86.7 µM | MCF7 25.9 µM | SNB-78 31.6 µM | DMS-273 16.2 µM | KM-20L2 35.9 µM | DLD-1 17.5 µM | XF498 9.12 µM | LOX IMVI 12.1 µM | NCI/ADR-RES 15.7 µM | HCC 2998 35.1 µM | SNB-75 42 µM

Cc1cccc2ns[s+]c12
inactive: M14 > 100 µM | DMS-114 20.5 µM | HOP-18 > 100 µM | A498 > 100 µM | SNB-78 > 100 µM | TK-10 > 100 µM | DMS-273 52.4 µM | KM-20L2 > 100 µM | DLD-1 > 100 µM | HCC 2998 > 100 µM | ACHN > 100 µM | SNB-75 59 µM

CCN1CCCC(NCc2c3ccccc3c(CNC3CCCN(CC)C3)c3ccccc23)C1 (stereo not given)
inactive: DMS-114 4.99 µM | HOP-18 5.92 µM | M19-MEL 7.45 µM | A498 12.6 µM | MCF7 2.86 µM | SNB-78 22.3 µM | DMS-273 5.56 µM | KM-20L2 3.76 µM | DLD-1 12.8 µM | XF498 20.5 µM | LOX IMVI 6.37 µM | NCI/ADR-RES 25 µM | HCC 2998 13.1 µM | SNB-75 7.98 µM

CCCCS(=N)(=O)CC[C@H](N)C(=O)O (stereo not given in full) [BUTHIONINE SULFOXIME]
inactive: M14 > 5000 µM | DMS-114 > 5000 µM | HOP-18 > 5000 µM | T47D > 5000 µM | M19-MEL > 5000 µM | SR 286 µM | A498 4820 µM | MCF7 > 4190 µM | MDA-N > 10000 µM | SNB-78 > 5000 µM | TK-10 > 5000 µM | DMS-273 > 5000 µM | KM-20L2 > 5000 µM | DLD-1 > 5000 µM | XF498 476 µM | LOX IMVI 237 µM | NCI/ADR-RES 2840 µM | HCC 2998 > 5000 µM | ACHN > 5000 µM | SNB-75 2320 µM
